Laboratory results reported in patent publication US11814371B2, “Heterocyclic compound” (MEDSHINE DISCOVERY INC., priority 2020, dated 2023).
Where a name gives a salt, the structure may show the parent alone. Read-outs that look alike come from different tables or passages of the source.

Legend:
[1] = target: T1, recombinant human plasma kallikrein (Human PKal) (Homo sapiens, UniProt P03952); test: Inhibitory effect of test compounds on plasma kallikrein (PKal), fluorogenic substrate Z-FR-AMC; type: biochemical; settings: 10 µM Z-FR-AMC, 10 min pre-incubation
T1 construct: Gly20-Ala638 derived from NS0- with a 60-His appendage at the C-terminus; His tag ('60-His' [sic]) (C); purchased R&D Systems 2497-SE; host or cells: mouse myeloma cell line NS0
T1 sequence (P03952 20-638): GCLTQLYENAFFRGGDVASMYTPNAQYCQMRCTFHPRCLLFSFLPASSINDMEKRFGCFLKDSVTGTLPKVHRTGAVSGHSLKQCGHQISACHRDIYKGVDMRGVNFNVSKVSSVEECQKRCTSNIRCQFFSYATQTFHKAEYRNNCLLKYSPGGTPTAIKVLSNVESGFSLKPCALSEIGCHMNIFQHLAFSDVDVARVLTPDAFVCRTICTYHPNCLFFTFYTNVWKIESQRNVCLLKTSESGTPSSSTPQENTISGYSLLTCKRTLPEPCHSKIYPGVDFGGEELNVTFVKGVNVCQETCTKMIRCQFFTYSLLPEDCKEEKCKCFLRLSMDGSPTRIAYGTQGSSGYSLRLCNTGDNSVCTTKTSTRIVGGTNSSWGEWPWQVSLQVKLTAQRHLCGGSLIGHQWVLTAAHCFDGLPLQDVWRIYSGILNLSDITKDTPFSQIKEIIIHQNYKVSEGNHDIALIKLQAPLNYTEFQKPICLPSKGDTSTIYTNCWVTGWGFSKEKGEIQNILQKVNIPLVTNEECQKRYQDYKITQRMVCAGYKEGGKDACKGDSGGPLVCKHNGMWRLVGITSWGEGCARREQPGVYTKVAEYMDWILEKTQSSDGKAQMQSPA
Description: 1. PKal reaction buffer: 25 mM Tris-HCl (trometamol-HCl), pH 8.0, 100 mM NaCl, […], 0.01 % Brij35 (polyoxyethylene lauryl ether), and 1 % DMSO (final concentration).
2. Enzyme: PKal (R&D Systems Cat# 2497-SE), recombinant human plasma kallikrein expressed in a mouse myeloma cell line, Gly20-Ala638 derived from NS0- with a 60-His appendage at the C-terminus, MW=70 kDa. Activation of the enzyme: (1) rhPKal was diluted to 200 µg/mL activation buffer (100 mM Tris, 10 mM CaCl2, 150 mM NaCl, pH 7.5 (TCN)); (2) thermolysin was diluted to 20 µg/mL activation buffer; (3) rhPKal (200 µg/mL) and thermolysin (20 µg/mL) were mixed in equal volumes; (4) the mixture was incubated at 37° C. for 30 min; (5) then the reactions was stopped with 50 µM EDTA (ethylenediaminetetraacetic acid).
3. Substrate (Enzo Cat# P-139): 10 µM Z-FR-AMC (AMC: 7-amino-4-methylcoumarin).
4. Detection: EnVision (PE), Ex/Em 355/460 nm.
5. Reaction process: (1) The specified enzymes and substrates were prepared in freshly prepared activation buffer; (2) the enzyme solution was injected into the reaction hole; (3) the DMSO solution of the test compound was injected into the reaction mixture, and controlled within the nanoliter range using acoustic technology (Echo 550, LabCyte Inc. Sunnyvale, CA); (4) after 10 min of pre-incubation, the substrate solution was injected into the reaction hole to start the reaction; (5) the activity of the enzyme could be indicated by the increase of the fluorescence signal of the fluorescent labeled peptide substrate, which was monitored every 5 min and lasted for 120 min at room temperature; (6) data analysis: the slope* (fluorescence signal/time) of the straight line was measured, then the slope could be calculated by excel and the curve could be fitted by Prism software.

[2] = Pharmacokinetic test in rats after intravenous and intragastric administration (plasma, LC-MS/MS); type: in vivo; settings: male, SD, rat; for AUC(0-inf): read-out: Curve area (o-inf) AUC0-inf; for AUC(0-t): read-out: Curve area (o-t) AUC0-last; for half-life: read-out: Half-life T½ (converted); for Tmax: read-out: Peak time Tmax; for Cmax: read-out: Plasma drug concentration Cmax; for bioavailability: read-out: Bioavailability F; for Vd: read-out: Apparent volume of distribution Vdss; for clearance: read-out: Clearance rate Cl
Description: Male SD rats were used as test animals, and LC-MS/MS method was used to determine the drug concentrations in plasma of rats at different times after intravenous and intragastric administration of test compounds. The pharmacokinetic behaviors of the compounds in rats were studied and the pharmacokinetic characteristics were evaluated.
2.2 Test animals: 28 healthy adult male SD rats were divided into 14 groups with 2 rats in each group. Animals were purchased from Beijing Vital River Laboratory Animal Technology Co., Ltd.
(§1) An appropriate amount of sample was weighed, and an appropriate amount of DMSO, polyoxyethylene castor oil and sterile water for injection were added in sequence according to the volume ratio of 10:10:80, then the mixture was stirred and sonicated to reach a clear state of 0.5 mg/mL for intravenous administration.
as §1, with “clear or suspension” for “clear”, “0.4” for “0.5”, “intragastric” for “intravenous”
as §1, with “3” for “0.5”
2.4 Administration: 28 male SD rats were divided into 14 groups, after fasting for one night, the intravenous administration group was administered with an administration volume of 2 mL/kg and a dose of 1 mg/kg; the intragastric administration group 1 was administered with an administration volume of 5 mL/kg and a dose of 2 mg/kg. The intragastric administration group 2 was administered with an administration volume of 10 mL/kg and a dose of 30 mg/kg.
After the compound was administered intravenously to male SD rats, 40 µL of blood was collected at 0.0833, 0.25, 0.5, 1, 2, 4, 8 and 24 hours, respectively, and placed in tubes containing 2 µL of EDTA-K2. After the compound was administered in the intragastric administration group, 40 µL of blood was collected at 0.25, 0.5, 1, 2, 4, 6, 10 and 24 hours, respectively, and placed in tubes containing 2 µL of EDTA-K2. The tubes were centrifuged at 4000 rpm for 15 minutes to separate the plasma, and stored at -60° C. Animals were allowed to eat 2 hours after administration.
LC-MS/MS method was used to determine the content of the test compounds in the plasma of rats after intravenous and intragastric administration. The linear range of the method was 2.00 - 6000 nmol/L; plasma samples were treated with acetonitrile to precipitate protein, and then analyzed.

[3] = po, intragastric administration (group 1), nominal 2 mg/kg (actual dose in c2)
[4] = intravenous administration, nominal 1 mg/kg (actual dose in c2)
[5] = po, intragastric administration (group 2), nominal 30 mg/kg (actual dose in c2)

Structure (SMILES)	IC50 [1] [nM]	AUC(0-inf) [2, 3] [µM·h]	AUC(0-t) [2, 3] [µM·h]	half-life [2, 3] [min]	Tmax [2, 3] [min]	Cmax [2, 3] [nM]	further results
COc1ccc(Cl)c(CNC(=O)c2cn(Cc3ccc(Cn4cc(F)ccc4=O)cc3)nc2C2COC2)c1F [Compound 3]	0.264	2.12	2.11	82.2	30	1760	bioavailability [2, 3]: 19.3%; Vd [2, 4]: 0.169 L/kg; clearance [2, 4]: 7.85 mL/min/kg; AUC(0-inf) [2, 4]: 5.5 µM·h; AUC(0-t) [2, 4]: 5.49 µM·h; half-life [2, 4]: 42.8 min
COc1ccc(F)c(CNC(=O)c2cn(Cc3ccc(Cn4cc(F)ccc4=O)nc3)nc2C2COC2)c1F [Compound 6]	2.63	0.661	0.653	140	22.2	650	
COc1ccc(F)c(CNC(=O)c2cn(Cc3ccc(Cn4ccccc4=O)c(F)c3)nc2C2COC2)c1F [Compound 7]	0.552						AUC(0-inf) [2, 5]: 1.93 µM·h; AUC(0-t) [2, 5]: 1.84 µM·h; half-life [2, 5]: 157 min; Tmax [2, 5]: 30 min; Cmax [2, 5]: 813 nM
COc1ccnc(CNC(=O)c2cn(Cc3ccc(Cn4cc(F)ccc4=O)cc3)nc2C2(C)COC2)c1F [Compound 9]	1.03						
COc1ccc(F)c(CNC(=O)c2cn(Cc3ccc(Cn4cc(F)ccc4=O)cc3)nc2C2(C)COC2)c1F [Compound 10]	0.344						
COc1ccc(F)c(CNC(=O)c2cn(Cc3ccc(Cn4ccccc4=O)cc3)nc2C2CN(C(C)=O)C2)c1F [Compound 13]	0.833						
COc1ccc(F)c(CNC(=O)c2cn(Cc3ccc(Cn4ccccc4=O)cc3)nc2C2CN(S(C)(=O)=O)C2)c1F [Compound 14]	0.717						
COc1ccnc(CNC(=O)c2cn(Cc3ccc(Cn4cc(F)ccc4=O)cc3)nc2C2CN(CC(F)(F)F)C2)c1F [Compound 15]	2.24						

Second part, led by results:

IC50 [1] [nM]	AUC(0-inf) [2, 3] [µM·h]	AUC(0-t) [2, 3] [µM·h]	half-life [2, 3] [min]	Tmax [2, 3] [min]	Cmax [2, 3] [nM]	Structure (SMILES)	further results
1.53	0.246	0.241	26.2	15	301	COc1ccnc(CNC(=O)c2cn(Cc3ccc(Cn4cc(F)ccc4=O)cc3)nc2C2COC2)c1F [Compound 2]	
0.052	1.8	1.79	76.8	22.2	1550	COc1ccc(Cl)c(CNC(=O)c2cn(Cc3ccc(Cn4ccccc4=O)cc3)nc2C2COC2)c1F [Compound 4]	bioavailability [2, 3]: 22.7%; Vd [2, 4]: 0.182 L/kg; clearance [2, 4]: 8.26 mL/min/kg; AUC(0-inf) [2, 4]: 3.95 µM·h; AUC(0-t) [2, 4]: 3.94 µM·h; half-life [2, 4]: 36.3 min
18.7						COc1ccc(F)c(CNC(=O)c2cn(Cc3ccc(Cn4ccccc4=O)cn3)nc2C2COC2)c1F [Compound 5]	
0.62	1.94	1.93	136	45	1140	COc1ccc(F)c(CNC(=O)c2cn(Cc3ccc(Cn4ccccc4=O)cc3)nc2C2COC2)c1F [Compound 16]	bioavailability [2, 3]: 22.1%; Vd [2, 4]: 0.2 L/kg; clearance [2, 4]: 7.3 mL/min/kg; AUC(0-inf) [2, 4]: 4.39 µM·h; AUC(0-t) [2, 4]: 4.37 µM·h; half-life [2, 4]: 35.8 min
0.053	0.246	0.237	50.8	30	230	COc1ccnc(CNC(=O)c2cn(Cc3ccc(Cn4ccccc4=O)cc3)nc2C2COC2)c1F [Compound 17]	
0.269						COc1ccc(F)c(CNC(=O)c2cn(Cc3ccc(Cn4ccccc4=O)cc3)nc2C2CNC2)c1F [Hydrochloride of compound 11]	
1.08						COc1ccc(F)c(CNC(=O)c2cn(Cc3ccc(Cn4ccccc4=O)cc3)nc2C2CN(C)C2)c1F [Hydrochloride of compound 12]	
2.31						COc1ccnc(CNC(=O)c2cn(Cc3ccc(Cn4cc(F)ccc4=O)c(F)c3)nc2C2COC2)c1F [Hydrochloride of compound 18]	
